From PubChem BioAssay AID179 (DTP/NCI, 2004)
Active and inactive are the calls of the source.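 The calls were made as follows: active = compounds giving half or more protection of infected cells from virus-caused growth loss, again on retest; inactive = the rest.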

System: CEM cells HIV-1 protection, formazan growth assay
Experiment: NCI AIDS Antiviral Assay
Conditions: for IC50: measured here: growth of uninfected CEM cells
In short: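 Screen of anti-HIV-1 activity in human CEM cells using a formazan-based growth measurement at five drug concentrations. Hits with 50% or greater protection were repeated, and confirmation required reproducible complete protection.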

| Structure (SMILES) | EC50 [µM] | IC50 [µM] | outcome |
| --- | --- | --- | --- |
| O=C(O)c1nc2cc(C(F)(F)F)ccc2nc1Nc1ccc(Cl)c(Cl)c1 | > 200 | 10 | – |
| CCOc1ccc2nc(NC(=O)CC(C)=O)sc2c1 | > 200 | 27.5 | – |
| Cn1nc(-c2ccccc2)c2c(/C=C/c3ccc(Cl)cc3)onc2c1=O | > 14.5 | > 14.5 | – |
| CCCN=C(C(C)=O)N(C)C | > 1580 | 871 | – |
| CC(=O)Nc1ccc(S2=Nc3ccccc3S2)cc1 (stereo unspecified) | > 49 | 16.2 | – |
| C1CSCC2(COC2)CS1 | > 1410 | 1320 | – |
| CN1CCC2(CC1)SC[C@H]1C(=O)N(c3ccc(Cl)cc3)C(=O)N12 | > 200 | 120 | – |
| CCOC(=O)c1[nH]c2c(cc(C=O)c3ccccc32)c1C | > 200 | 60.3 | – |
| CN(C)C(=N)CSS(=O)(=O)O | 120 | 182 | – |
| CC(C)(C1=NC(C(C)(C)C)CO1)C1=N[C@@H](C(C)(C)C)CO1 (stereo partly specified) | > 251 | > 251 | – |
| CC(=O)Nc1c(C)cc2c(nc3n2CCC3O)c1[N+](=O)[O-] (stereo unspecified) | > 200 | > 200 | – |
| O=C(OCCOCCOC(=O)c1c[nH]cc1-c1ccccc1)c1c[nH]cc1-c1ccccc1 | – | – | inactive |
| CNC(=O)OCCOc1ccccc1 | > 200 | > 200 | – |
| O=S(=O)(O)c1cc(Cl)cc(Cc2cc(Cl)cc(S(=O)(=O)O)c2O)c1O | – | – | active |
| CC(C)(Br)C(=O)N1CCN(C(c2ccccc2)c2ccccc2)CC1 | > 25.1 | – | – |
| COc1ccccc1C=C1C(=O)OC(C)(C)OC1=O | – | – | inactive |
| CC(C)OC(=O)[C@H]1ON2O[C@H](O[C@@H]3CCCC[C@H]3c3ccccc3)C([Si](C)(C)c3ccccc3)[C@H]3OC(=O)[C@@H]1C32 (stereo partly specified) | > 200 | 158 | – |
| CC(C)=CCC1=C(O)c2ccccc2C(=O)C1=O | – | – | inactive |
| CC1OC(OCC2OC(Oc3ccc(C4CC(=O)c5c(O)cc(O)cc5O4)cc3O)C(O)C(O)C2O)C(O)C(O)C1O (stereo unspecified) | > 200 | > 200 | – |
| O=C1Nc2ccccc2C1S(=O)(=O)c1ccccc1 (stereo unspecified) | > 138 | 110 | – |
| CC(C(=O)c1cc(O)c(O)cc1C(O)(C(F)(F)F)C(F)(F)F)C(O)(C(F)(F)F)C(F)(F)F (stereo unspecified) | 70.8 | > 100 | – |
| COc1ccc(C2=C3c4cc(OC)c(OC)cc4CCN3C(=S)SS2)cc1OC | – | – | inactive |
| CCCCCCCCCCCCCCCCCC(=O)OC[C@H](COP(=O)(O)OCCNC(=O)CCC(=O)OCCC=C(c1cc(Cl)c(OC)c(C(=O)OC)c1)c1cc(Cl)c(OC)c(C(=O)OC)c1)OC(=O)CCCCCCCCCCCCCCCCC | > 100 | > 100 | – |
| O=C(OC1CCCCC1)c1cc(NC(=S)c2ccsc2)ccc1Cl | 0.141 | 11.2 | – |

| Structure (SMILES) | EC50 [µM] | IC50 [µM] | outcome |
| --- | --- | --- | --- |
| Cc1cccc(NC(=O)Nc2ccccc2)n1 | > 200 | 97.7 | – |
| O=C(c1ccccc1)N1OC12CCCCC2 | > 200 | 51.3 | – |
| O=C(/C=C/c1ccccc1[N+](=O)[O-])c1ccccc1 | > 39.8 | 6.92 | – |
| CC#COS(=O)(=O)c1ccc(C)cc1 | > 251 | 110 | – |
| C(#C[C@@]12CCC[C@@H]1NCO2)c1ccc2c(c1)OCO2 | > 200 | 50.1 | – |
| Cc1n[nH]c2ccccc2c1=O | > 676 | 490 | – |
| COC(=O)c1c2n(c3ccccc13)C[C@H]1OC(C)(C)O[C@@H]21 | > 200 | 126 | – |
| CO[C@H]1c2cccc3cccc(c23)[C@@H]1n1[nH]c(=O)n(C(C)(C)C)c1=O | > 200 | > 200 | – |
| O=C1C=C[C@@]23CC1C(O)C[C@H]2C=Cc1ccccc13 (stereo partly specified) | > 102 | > 102 | – |
| O=[N+]([O-])c1ccc(S(=O)(=O)N/N=C/C=C/c2ccccc2)cc1 | > 151 | > 151 | – |
| CN(C)c1ccc(C(C=C2c3ccccc3Sc3ccccc32)=C(C#N)C#N)cc1 | – | – | inactive |
| CCCCc1ccc2[n+](c1)C(C(=O)OCC)=PC2 (stereo unspecified) | > 178 | 145 | – |
| NC(=O)C(=O)Cc1nc2ccccc2s1 | > 91.2 | > 91.2 | – |
| N#CC1C(=O)Nc2cccnc21 (stereo unspecified) | > 1580 | 832 | – |
| O=[N+]([O-])c1ccc(/C=C/C=C/C=C/C=C/c2ccc(S(=O)(=O)F)cc2Cl)c(Cl)c1 | > 200 | 186 | – |
| COc1nc2c(nc(N)n2C2OC(CO)C(O)C(O)C2O)c(=O)n1C (stereo unspecified) | – | – | inactive |
| CCOC(=O)[C@@H]1[C@@H](c2ccccc2)N(C)O[C@@]1(c1ccccc1)C(F)(F)F | > 200 | 47.9 | – |
| CN(C)C(N)=NC#N | > 794 | > 794 | – |
| CC(C)(C)CP(CCP(C)(C)=S)CC(C)(C)C | > 44.7 | > 44.7 | – |
| CCSc1nc2cccc([N+](=O)[O-])c2n1CC | – | – | inactive |
| CCN(CC)CCOC(=O)c1ccc(N)cc1 | > 200 | > 200 | – |
| COc1cc2c(cc1OC)NC(=O)CC(=O)N2 | > 200 | > 200 | – |
| CCOC(=O)/C(C#N)=C/c1[nH]c(C)c(C)c1C | – | – | inactive |
| Nc1nc(Cl)cc(OCC2(CO)CC2)n1 | > 200 | > 200 | – |
